Entries after “also recorded” stand apart in the source; their conditions may differ. Marks after values point to notes of the source that are not given here.
Experiments:
SD rats = assay: Toxicity test on SD rats by repeated intravenous administrations for 7 days; type: in vivo, rat; conditions: 1 mg/kg intravenously qd
Procedure: This experiment was performed to evaluate the toxicity of compound 9 and AZD4320 to SD rats by repeated intravenous administrations for 7 days.
30 SD rats, weighing about 180-200 g and aged 6-7 weeks, half male and half female, purchased from Zhejiang Vital River Laboratory Animal Technology Co., Ltd., SPF grade. Animal certification number: 200917Aazz0619000298 and 20200917Aazz0619000104. Production license number: SCXK (Zhejiang) 2019-0001.
Housing conditions: SPF grade, animals were housed in plastic and transparent rat cages, 2-3 per cage. The room temperature was 20-26° C. and the relative humidity was 40%-70%. The illumination was controlled in a 12/12 light/dark cycle. The granulated feed for mice was freely taken in an unlimited amount.
The rats were randomly divided into the following 3 groups: a vehicle control group, a compound 9-1 mg/kg group and a compound AZD4320-1 mg/kg group, with 6 rats in each group, half male and half female.
Dosage of the test sample for the 7-day toxicity test in rats: 1 mg/kg (qd), for 7 consecutive days. Administration route: intravenously, dosing volume: 10 mL/kg, dosing frequency and dosing period: daily in the morning for 7 days.
Vehicle: 1.5% DMA+98.5% (10% HS-15), wherein DMA is N,N-dimethylacetamide (Shanghai Titan Scientific Co., Ltd., Cat #01013630); and HS-15 is polyethylene glycol stearate 15 (Solutol HS15) (Shanghai Xietai Chemical Co., Ltd., Cat #50253404).
Hitachi 7100 automatic biochemical analyzer
Siemens advia 2120i automatic blood cell analyzer
Sysmex ca1500 automatic coagulation analyzer
The detection results were input and statistically processed by Excel of the computer.
Clinical symptoms, food intake and general visual observation results of dissection were not statistically calculated, and indexes such as body weight, organ weight and clinical examination were counted by using T-test.
SD rats were intravenously administered with 1 mg/kg compound 9 or 1 mg/kg AZD4320 at 5 mL/kg for 7 repeated days.

[1] = Pharmacokinetic evaluation in mice (iv, LC/MS/MS plasma); type: in vivo; conditions: intravenous administration
Procedure: The drug concentration in the plasma of the test animals (mice) at different time points after intravenous (iv) administration of compound 10 and AZD4320 was determined by an LC/MS/MS method. The pharmacokinetic behavior of the compounds of the present disclosure in mice was studied and their pharmacokinetic profile was valuated.
18 C57 mice, female, randomly divided into 2 groups, purchased from Zhejiang Vital River Laboratory Animal Technology Co., Ltd, animal production license number: SCXK (Shanghai) 2017-0005.
A certain amount of compound 10 was weighed, dissolved by adding 5% by volume of DMSO and 5% Tween 80 (Shanghai Titan Scientific Co., Ltd.), and then prepared into a 0.1 mg/mL clear solution by adding 90% normal saline. Compound AZD4320 was formulated as with compound 10. […]
(§1) The mice were intravenously administered with compound 10, and 0.1 mL of blood was collected before the administration and 5 min, 0.25 h, 0.5 h, 1.0 h, 2.0 h, 4.0 h, 8.0 h, 11.0 h and 24.0 h after the administration, put into an EDTA-K2 anticoagulation tube, centrifuged at 10,000 rpm for 1 min (4° C.). Plasma was separated within 1 hour, and stored at −20° C. for testing. The process from blood collection to centrifugation was performed under an ice bath.
as §1, with “compound AZD4320,” for “compound 10,”
The content of the test compounds at different concentrations in plasma of mice after the administration was determined: 10 μL of plasma of mice at each time point after the administration was mixed with 200 μL of methanol (containing an internal standard solution camptothecin (100 ng/mL)); the mixture was vortexed for 1 min, and centrifuged for 10 min (18,000 r/min), and 3 μL of supernatant was taken for LC/MS/MS analysis.

| SMILES | Clinical observation of the animals during treatment (SD rats) | PLT (10^9/L) (SD rats) | Effect on platelets (in words) (SD rats; vs vehicle control, listed as compound 9, 1 mg/kg) | Clearance CLz/F ([1]; C57 mice, female, dose 1 mg/kg (table)) [mL/min/kg] | Clearance in mice (in words) ([1]; mice) | Elimination phase half-life compared with the positive control AZD 4320 (in words) ([1]; mice) | AUC(0-t) ([1]; mouse, plasma, C57 mice, female, dose 1 mg/kg (table), read-out: Area under curve AUC0-t) [ng·h/mL] | half-life ([1]; mouse, plasma, C57 mice, female, dose 1 mg/kg (table), read-out: Half-life T½ (converted)) [min] | MRT inf ([1]; mouse, plasma, C57 mice, female, dose 1 mg/kg (table), read-out: Mean retention time MRT 0-∞) [h] | concentration at 5 min ([1]; mouse, plasma, C57 mice, female, dose 1 mg/kg (table), read-out: Plasma Concentration C5 min) [ng/mL] |
| --- | --- | --- | --- | --- | --- | --- | --- | --- | --- | --- |
| O=C(NS(=O)(=O)c1ccc(N[C@@H](CSc2ccccc2)C[C@@H]2CCCN2CCO)c(S(=O)(=O)C(F)(F)F)c1)c1ccc(N2CCC([C@@H](O)c3ccccc3-c3ccc(Cl)cc3)CC2)cc1 [Example 2-9, 4-(4-((R)-(4′-chloro-[1,1′-biphenyl]-2-yl)(hydroxy)methyl)piperidin-1-yl)-N-((4-(((R)-1-((S)-1-(2-hydroxyethyl)pyrrolidin-2-yl)-3-(phenylthio)propan-2-yl)amino)-3-((trifluoromethyl)sulfonyl)phenyl)sulfonyl)benzamide] | No significant abnormalities | 1,258.67* 10^9/L | slightly reduced but within the background normal range; also recorded: reduces platelets less than the positive control group | – | – | – | – | – | – | – |
| CN(CCO)CC[C@H](CSc1ccccc1)Nc1ccc(S(=O)(=O)NC(=O)c2ccc(N3CCC([C@@H](O)c4ccccc4-c4ccc(C(F)(F)F)cc4)CC3)cc2)cc1S(=O)(=O)C(F)(F)F [Example 2-10, 4-(4-((R)-hydroxy(4′-(trifluoromethyl)-[1,1′-biphenyl]-2-yl)methyl)piperidin-1-yl)-N-((4-(((R)-4-((2-hydroxyethyl)(methyl)amino)-1-(phenylthio)butan-2-yl)amino)-3-((trifluoromethyl)sulfonyl)phenyl)sulfonyl)benzamide] | – | – | – | 50.3 | cleared slowly | longer elimination phase half-life than the positive control AZD 4320 | 296 | 780 | 7.3 | 608 |
